Measured values published in patent publication US20240216392A1, “METHODS OF TREAMENT” (Arena Pharmaceuticals, Inc., priority 2022, published 2024).
Like-named read-outs stand apart in the source and are kept apart here.

Tests used:
[1] = tested on: UGT metabolic pathway and renal transporters; details: single 12 mg dose with probenecid/cimetidine vs alone
[2] = Phase 1 multiple-dose study, plasma PK; assay type: in vivo, human; details: for half-life / Tmax / Cmax / AUC: both sexes, human, plasma, oral; for AUC: read-out: Plasma AUCtau, geometric mean (geometric CV %)
Procedure: Subjects were enrolled to 1 of 2 dosage regimens. Subject enrollment was stratified by sex to ensure approximate sex balance in each cohort.
(§1) Morning doses were administered following a standard light breakfast (e.g., milk and cereal, toast, and fruit) on all days. TID dosing (three times a day) was approximately 8 hours apart. Subjects fasted from midnight onwards, until the morning breakfast each day. There was no fluid restriction during the study, but subjects should not have consumed excessive amounts of fluid on any day.
The Phase 1, open-label, multiple-dose study of Example 1 was conducted for Cohorts 1-3, 4A, and 4B.
as §1, with “hours apart, and BID dosing (two times a day) was 12 hours” for “hours”, “were” for “should”, “to consume” for “have consumed”

Structure (SMILES): C[C@H]1CN2CCNCc3ccc(C(=O)NCC(F)F)c1c32 [Compound 1, (R)—N-(2,2-difluoroethyl)-7-methyl-1,2,3,4,6,7-hexahydro-[1,4]diazepino[6,7,1-hi]indole-8-carboxamide]
- increase in Compound 1 exposure [1]: ~80%
- average plasma concentrations over the dosing interval, comparability ([2]; Cohort 2 (12 mg TID) vs Cohort 4B (18 mg BID)): ~28%
- Plasma Cavg, geometric mean (geometric CV %) ([2]; Day 8, Cohort 1 (6 mg TID)): 9.947 (2.6843) ng/mL
- Plasma Ctrough, geometric mean (geometric CV %) ([2]; Day 8, Cohort 1 (6 mg TID)): 5.150 (1.6616) ng/mL
- Plasma Cavg, geometric mean (geometric CV %) ([2]; Day 8, Cohort 2 (12 mg TID)): 26.19 (14.697) ng/mL
- Plasma Ctrough, geometric mean (geometric CV %) ([2]; Day 8, Cohort 2 (12 mg TID)): 14.96 (9.9859) ng/mL
- Plasma Cavg, geometric mean (geometric CV %) ([2]; Day 8, Cohort 3 (12 mg BID)): 14.42 (6.4875) ng/mL
- Plasma Ctrough, geometric mean (geometric CV %) ([2]; Day 8, Cohort 3 (12 mg BID)): 4.892 (2.8780) ng/mL
- Plasma Cavg, geometric mean (geometric CV %) ([2]; Day 8, Cohort 4A (15 mg BID)): 16.64 (4.4047) ng/mL
- Plasma Ctrough, geometric mean (geometric CV %) ([2]; Day 8, Cohort 4A (15 mg BID)): 5.557 (2.3832) ng/mL
- Plasma Cavg, geometric mean (geometric CV %) ([2]; Day 8, Cohort 4B (18 mg BID)): 20.62 (8.3690) ng/mL
- Plasma Ctrough, geometric mean (geometric CV %) ([2]; Day 8, Cohort 4B (18 mg BID)): 7.427 (3.4830) ng/mL
- Plasma Cavg, geometric mean (geometric CV %) ([2]; Day 9, Cohort 1 (6 mg TID)): 11.03 (3.3822) ng/mL
- Plasma Ctrough, geometric mean (geometric CV %) ([2]; Day 9, Cohort 1 (6 mg TID)): 5.181 (1.9717) ng/mL
- Plasma Cavg, geometric mean (geometric CV %) ([2]; Day 9, Cohort 2 (12 mg TID)): 27.22 (17.047) ng/mL
- Plasma Ctrough, geometric mean (geometric CV %) ([2]; Day 9, Cohort 2 (12 mg TID)): 14.74 (13.800) ng/mL
- Plasma Cavg, geometric mean (geometric CV %) ([2]; Day 9, Cohort 3 (12 mg BID)): 14.85 (6.1228) ng/mL
- Plasma Ctrough, geometric mean (geometric CV %) ([2]; Day 9, Cohort 3 (12 mg BID)): 4.864 (2.7031) ng/mL
- Plasma Cavg, geometric mean (geometric CV %) ([2]; Day 9, Cohort 4A (15 mg BID)): 17.84 (4.6403) ng/mL
- Plasma Ctrough, geometric mean (geometric CV %) ([2]; Day 9, Cohort 4A (15 mg BID)): 6.497 (2.3570) ng/mL
- Plasma Cavg, geometric mean (geometric CV %) ([2]; Day 9, Cohort 4B (18 mg BID)): 22.23 (10.604) ng/mL
- Plasma Ctrough, geometric mean (geometric CV %) ([2]; Day 9, Cohort 4B (18 mg BID)): 7.066 (4.3229) ng/mL
- Plasma Cavg, geometric mean (geometric CV %) ([2]; Day 10, Cohort 1 (6 mg TID)): 10.71 (2.8291) ng/mL
- Plasma Ctrough, geometric mean (geometric CV %) ([2]; Day 10, Cohort 1 (6 mg TID)): 5.730 (1.7982) ng/mL
- Plasma Cavg, geometric mean (geometric CV %) ([2]; Day 10, Cohort 2 (12 mg TID)): 27.73 (18.586) ng/mL
- Plasma Ctrough, geometric mean (geometric CV %) ([2]; Day 10, Cohort 2 (12 mg TID)): 14.30 (11.743) ng/mL
- Plasma Cavg, geometric mean (geometric CV %) ([2]; Day 10, Cohort 3 (12 mg BID)): 14.14 (6.2142) ng/mL
- Plasma Ctrough, geometric mean (geometric CV %) ([2]; Day 10, Cohort 3 (12 mg BID)): 3.951 (2.4984) ng/mL
- Plasma Cavg, geometric mean (geometric CV %) ([2]; Day 10, Cohort 4A (15 mg BID)): 16.70 (5.0410) ng/mL
- Plasma Ctrough, geometric mean (geometric CV %) ([2]; Day 10, Cohort 4A (15 mg BID)): 4.372 ng/mL
- Plasma Cavg, geometric mean (geometric CV %) ([2]; Day 10, Cohort 4B (18 mg BID)): 19.64 (6.8876) ng/mL
- Plasma Ctrough, geometric mean (geometric CV %) ([2]; Day 10, Cohort 4B (18 mg BID)): 5.185 (2.4429) ng/mL
- half-life ([2]; 3 mg, Day 1, single 3 mg dose, Cohort 1, read-out: apparent terminal half-life (converted)): 3.1 h
- Tmax ([2]; 3 mg, Day 1, single 3 mg dose, Cohort 1, read-out: plasma Tmax, median): 1 h
- Cmax ([2]; 3 mg, Day 1, single 3 mg dose, Cohort 1, read-out: plasma geometric mean Cmax): 4.7 ng/mL
- half-life ([2]; 6 mg, Day 1, single 6 mg dose, Cohorts 2, 3, 4A, 4B, read-out: apparent terminal half-life (converted)): 3.1 to 3.3 h
- Tmax ([2]; 6 mg, Day 1, single 6 mg dose, Cohorts 2, 3, 4A, 4B, read-out: plasma Tmax, median): 0.98 to 1.14 h
- Cmax ([2]; 6 mg, Day 1, single 6 mg dose, Cohorts 2, 3, 4A, 4B, read-out: plasma geometric mean Cmax): 7.8 to 12.4 ng/mL
- AUC ([2]; 6 mg, Day 8, Cohort 1 (6 mg TID)): 77.1 ng·h/mL
- Cmax ([2]; 6 mg, Day 8, Cohort 1 (6 mg TID), read-out: Plasma Cmax, geometric mean (geometric CV %)): 16.6 ng/mL
- half-life ([2]; 6 mg, Day 8, Cohort 1 (6 mg TID), read-out: Plasma T1/2, mean (SD) (converted)): 4.49 h
- Tmax ([2]; 6 mg, Day 8, Cohort 1 (6 mg TID), read-out: Plasma Tmax, median (minimum, maximum)): 1.54 h
- AUC ([2]; 6 mg, Day 9, Cohort 1 (6 mg TID)): 84.9 ng·h/mL
- Cmax ([2]; 6 mg, Day 9, Cohort 1 (6 mg TID), read-out: Plasma Cmax, geometric mean (geometric CV %)): 18.4 ng/mL
- half-life ([2]; 6 mg, Day 9, Cohort 1 (6 mg TID), read-out: Plasma T1/2, mean (SD) (converted)): 3.85 h
- Tmax ([2]; 6 mg, Day 9, Cohort 1 (6 mg TID), read-out: Plasma Tmax, median (minimum, maximum)): 0.94 h
- AUC ([2]; 6 mg, Day 10, Cohort 1 (6 mg TID)): 82.6 ng·h/mL
- Cmax ([2]; 6 mg, Day 10, Cohort 1 (6 mg TID), read-out: Plasma Cmax, geometric mean (geometric CV %)): 16.5 ng/mL
- half-life ([2]; 6 mg, Day 10, Cohort 1 (6 mg TID), read-out: Plasma T1/2, mean (SD) (converted)): 4.63 h
- Tmax ([2]; 6 mg, Day 10, Cohort 1 (6 mg TID), read-out: Plasma Tmax, median (minimum, maximum)): 1.03 h
